These results are taken from US20240409585A1, “MACROCYCLIC IMMUNOMODULATORS” (priority 2021, published 2024).

The structures appear in SMILES notation. Bridge positions count the residues as written; N and C are the ends. Square brackets hold non-standard residues; d marks the D form. Peptide text beside a SMILES is read from it. * marks the point of attachment. ξ: configuration not given here. Gly(1-amidinopiperidin-4-yl) = N=C(N)N1CCC([C@H](N)C(=O)O)CC1; Phe(3-CF3) = N[C@@H](Cc1cccc(C(F)(F)F)c1)C(=O)O; Ala(morpholin-4-yl) = N[C@@H](CN1CCOCC1)C(=O)O; Phe(4-COOH) = N[C@@H](Cc1ccc(C(=O)O)cc1)C(=O)O; Asp(3,3-Me2) = CC(C)(C(=O)O)[C@H](N)C(=O)O; Bip = N[C@@H](Cc1ccc(-c2ccccc2)cc1)C(=O)O; Phe(3-OMe) = COc1cccc(C[C@H](N)C(=O)O)c1; Phe(3-Me) = Cc1cccc(C[C@H](N)C(=O)O)c1; Phe(4-I) = N[C@@H](Cc1ccc(I)cc1)C(=O)O; Phe(2-F) = N[C@@H](Cc1ccccc1F)C(=O)O; 4Pal = N[C@@H](Cc1ccncc1)C(=O)O; Cha = N[C@@H](CC1CCCCC1)C(=O)O; Cit = NC(=O)NCCC[C@H](N)C(=O)O; Ile(3ξ) = CCC(C)[C@H](N)C(=O)O; Thr(3ξ) = CC(O)[C@H](N)C(=O)O; Carboxymethyl = O=C(O)C*; NMeA = CN[C@@H](C)C(=O)O; Dab = NCC[C@H](N)C(=O)O; Dap = NC[C@H](N)C(=O)O; NH(CH2)5NH2 = NCCCCCN*; Piv = CC(C)(C)C(=O)*; ξV = CC(C)C(N)C(=O)O

The target in this experiment is T1, PE-labeled human PD-L1-Ig binding to Jurkat cell line over-expressing human PD-1 (Jurkat-PD-1) (Homo sapiens, UniProt Q15116).
T1 construct: expressed in transfected cells; host or cells: Jurkat
T1 sequence (Q15116 25-288): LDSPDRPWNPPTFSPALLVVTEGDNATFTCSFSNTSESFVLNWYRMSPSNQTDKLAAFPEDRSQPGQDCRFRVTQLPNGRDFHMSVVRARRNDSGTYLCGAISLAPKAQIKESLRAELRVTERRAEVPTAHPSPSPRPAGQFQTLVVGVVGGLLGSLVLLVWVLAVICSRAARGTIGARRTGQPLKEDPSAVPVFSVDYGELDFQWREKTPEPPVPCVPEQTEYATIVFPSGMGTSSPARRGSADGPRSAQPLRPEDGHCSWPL
As to the kind of experiment: Jurkat-PD-1 Cell Binding High-Content Screening Assay (CBA): Method 1. The following applies: Jurkat-hPD-1 cells, PE-labeled PD-L1-Ig 20 nM final; read-out: Jurkat HPDL1 PD1 IC50 (uM) (Method 1).
Regarding `Cc1cccc(C[C@@H]2NC(=O)[C@H](CC(=O)O)NC(=O)[C@H](Cc3ccc(OCC(=O)O)cc3)NC(=O)[C@H](CN)NC(=O)CSC[C@@H](C(=O)N[C@@H](CCN)C(N)=O)NC(=O)[C@H]([C@@H](C)O)NC(=O)[C@H](C(C)C)NC(=O)[C@H](CC3CCCCC3)NC(=O)[C@H](CCNC(=O)C(C)(C)C)NC(=O)[C@@H](CC(C)C)NC(=O)[C@H](C)N(C)C(=O)[C@H](Cc3ccc(OCC(=O)O)cc3)NC(=O)[C@H](Cc3ccc(-c4ccccc4)cc3)NC(=O)[C@H](Cc3ccc(OCC(=O)O)cc3)NC2=O)c1` [Compound 1864] ({CH2CO}-[Dap]Y(Carboxymethyl)D[Phe(3-Me)]Y(Carboxymethyl)[Bip]Y(Carboxymethyl)[NMeA][dL][Dab](Piv)[Cha]VTC[Dab]-NH2; thioether N-14), the half-maximal inhibitory concentration (IC50) came out at 0.04 µM. As to `CC[C@H](C)[C@@H]1NC(=O)[C@H](Cc2ccc(-c3ccccc3)cc2)NC(=O)[C@H](C(C)C)NC(=O)[C@H](Cc2c[nH]c3ccccc23)NC(=O)[C@H](CC(=O)O)NC(=O)[C@H](Cc2cccc(OC)c2)NC(=O)[C@H](Cc2ccncc2)NC(=O)CSC[C@@H](C(=O)N[C@@H](C)C(N)=O)NC(=O)[C@H]([C@@H](C)O)NC(=O)[C@H](C(C)C)NC(=O)[C@H](CC(C)C)NC(=O)[C@H](CCN)NC(=O)[C@@H](CC(C)C)NC(=O)[C@H](C)N(C)C1=O` [Compound 1406] ({CH2CO}-[4Pal][Phe(3-OMe)]DWV[Bip]I[NMeA][dL][Dab]LVTCA-NH2; thioether N-14), the 50% inhibitory concentration (IC50) is 0.02 µM.

For `CC(C)C[C@@H]1NC(=O)[C@H](CCN)NC(=O)[C@@H](CC(C)C)NC(=O)[C@H](C)N(C)C(=O)[C@H](C(C)C)NC(=O)[C@H](Cc2ccc(-c3ccccc3)cc2)NC(=O)[C@H](C(C)C)NC(=O)[C@H](Cc2c[nH]c3ccccc23)NC(=O)[C@H](CC(=O)O)NC(=O)[C@H](Cc2ccc(C(=O)O)cc2)NC(=O)[C@H](Cc2ccc(OCC(=O)O)cc2)NC(=O)CSC[C@@H](C(=O)N[C@@H](C)C(N)=O)NC(=O)[C@H]([C@@H](C)O)NC(=O)[C@H](C(C)C)NC1=O` [Compound 1570] ({CH2CO}-Y(Carboxymethyl)[Phe(4-COOH)]DWV[Bip]V[NMeA][dL][Dab]LVTCA-NH2; thioether N-14), the concentration for half-maximal inhibition (IC50) is 0.01 µM. Then `CC(C)C[C@H]1NC(=O)[C@H](C)N(C)C(=O)[C@H](C(C)C)NC(=O)[C@H](Cc2ccc(-c3ccccc3)cc2)NC(=O)[C@H](C(C)C)NC(=O)[C@H](Cc2c[nH]c3ccccc23)NC(=O)[C@H](CC(N)=O)NC(=O)[C@H](Cc2ccc(OCC(=O)O)cc2)NC(=O)[C@H](Cc2ccccc2)NC(=O)CSC[C@@H](C(=O)N[C@@H](C)C(=O)NCCCCCN)NC(=O)[C@H](CO)NC(=O)C(C(C)C)NC(=O)[C@H](CC2CCCCC2)NC(=O)[C@H](CC(N)=O)NC1=O` (stereo partly drawn) [Compound 2240] ({CH2CO}-FY(Carboxymethyl)NWV[Bip]V[NMeA][dL]N[Cha][ξV]SCA-{NH(CH2)5NH2}; thioether N-14), with 0.04 µM; and `CC(C)C[C@@H]1NC(=O)[C@H](CCCNC(=N)N)NC(=O)[C@@H](CC(C)C)NC(=O)[C@H](C)N(C)C(=O)[C@H](CCCNC(=N)N)NC(=O)[C@H](Cc2ccc(-c3ccccc3)cc2)NC(=O)[C@H](C(C)C)NC(=O)[C@H](Cc2c[nH]c3ccccc23)NC(=O)[C@H](CC(=O)O)NC(=O)[C@H](Cc2ccc(O)cc2)NC(=O)[C@H](Cc2ccccc2)NC(=O)CSC[C@@H](C(=O)N[C@@H](C)C(N)=O)NC(=O)[C@H](CO)NC(=O)[C@H](C(C)C)NC1=O` [Compound 1035] ({CH2CO}-FYDWV[Bip]R[NMeA][dL]RLVSCA-NH2; thioether N-14), with 0.08 µM; and `CC(C)[C@@H]1NC(=O)[C@H](CC2CCCCC2)NC(=O)[C@H](CCN)NC(=O)CNC(=O)[C@H](C)N(C)C(=O)[C@H](Cc2ccc(C(=O)O)cc2)NC(=O)[C@H](Cc2ccc(-c3ccccc3)cc2)NC(=O)[C@H](Cc2ccc(C(=O)O)cc2)NC(=O)[C@H](Cc2cccc(C(F)(F)F)c2)NC(=O)[C@H](CC(=O)O)NC(=O)[C@H](Cc2ccc(C(=O)O)cc2)NC(=O)[C@H](CN2CCOCC2)NC(=O)CSC[C@@H](C(=O)N[C@@H](CCN)C(N)=O)NC(=O)[C@H](CCC(=O)O)NC1=O` [Example 2286] ({CH2CO}-[Ala(morpholin-4-yl)][Phe(4-COOH)]D[Phe(3-CF3)][Phe(4-COOH)][Bip][Phe(4-COOH)][NMeA]G[Dab][Cha]VEC[Dab]-NH2; thioether N-14), with 0.08 µM. Under `CC(C)C[C@@H]1NC(=O)[C@H](CCN)NC(=O)[C@@H](CC(C)C)NC(=O)[C@H](C)N(C)C(=O)[C@H](C(C)C)NC(=O)[C@H](Cc2ccc(-c3ccccc3)cc2)NC(=O)[C@H](C(C)C)NC(=O)[C@H](Cc2c[nH]c3ccccc23)NC(=O)[C@H](CC(=O)O)NC(=O)[C@H](Cc2ccc(O)cc2)NC(=O)[C@H](CCN)NC(=O)CSC[C@@H](C(=O)N[C@@H](C)C(N)=O)NC(=O)[C@H]([C@@H](C)O)NC(=O)[C@H](C(C)C)NC1=O` [Compound 1361] ({CH2CO}-[Dab]YDWV[Bip]V[NMeA][dL][Dab]LVTCA-NH2; thioether N-14) stands 0.01 µM. Then `CC(C)C[C@@H]1NC(=O)[C@H](CCN)NC(=O)[C@@H](CC(C)C)NC(=O)[C@H](C)N(C)C(=O)[C@H](CCCNC(=N)N)NC(=O)[C@H](Cc2ccc(-c3ccccc3)cc2)NC(=O)[C@H](C(C)C)NC(=O)[C@H](Cc2c[nH]c3ccccc23)NC(=O)[C@H](CC(=O)O)NC(=O)[C@H](Cc2ccccc2F)NC(=O)[C@H](CN)NC(=O)CSC[C@@H](C(=O)N[C@@H](C)C(N)=O)NC(=O)[C@H]([C@@H](C)O)NC(=O)[C@H](C(C)C)NC1=O` [Compound 1454] ({CH2CO}-[Dap][Phe(2-F)]DWV[Bip]R[NMeA][dL][Dab]LVTCA-NH2; thioether N-14), with 0.02 µM; and `Cc1cccc(C[C@@H]2NC(=O)[C@H](CC(=O)O)NC(=O)[C@H](Cc3ccc(OCC(=O)O)cc3)NC(=O)[C@H](CCN)NC(=O)CSC[C@@H](C(=O)N[C@@H](CCN)C(N)=O)NC(=O)[C@H](CO)NC(=O)[C@H](C(C)(C)C(=O)O)NC(=O)[C@H](CC3CCCCC3)NC(=O)[C@H](CCN)NC(=O)[C@@H](CC(C)C)NC(=O)[C@H](C)N(C)C(=O)[C@H](Cc3ccc(OCC(=O)O)cc3)NC(=O)[C@H](Cc3ccc(-c4ccccc4)cc3)NC(=O)[C@H](Cc3ccc(OCC(=O)O)cc3)NC2=O)c1` [Compound 1848] ({CH2CO}-[Dab]Y(Carboxymethyl)D[Phe(3-Me)]Y(Carboxymethyl)[Bip]Y(Carboxymethyl)[NMeA][dL][Dab][Cha][Asp(3,3-Me2)]SC[Dab]-NH2; thioether N-14), with 0.06 µM; and `CC(C)C[C@@H]1NC(=O)[C@H](CCCNC(=N)N)NC(=O)[C@@H](CC(C)C)NC(=O)[C@H](C)N(C)C(=O)[C@H](CCCNC(=N)N)NC(=O)[C@H](Cc2ccc(I)cc2)NC(=O)[C@H](C(C)C)NC(=O)[C@H](Cc2c[nH]c3ccccc23)NC(=O)[C@H](CC(=O)O)NC(=O)[C@H](Cc2ccc(O)cc2)NC(=O)[C@H](Cc2ccccc2)NC(=O)CSC[C@@H](C(=O)N[C@@H](C)C(N)=O)NC(=O)[C@H]([C@@H](C)O)NC(=O)[C@H](C(C)C)NC1=O` [Compound 1089] ({CH2CO}-FYDWV[Phe(4-I)]R[NMeA][dL]RLVTCA-NH2; thioether N-14), with 0.94 µM.

In the case of `Cc1cccc(C[C@@H]2NC(=O)[C@H](CC(=O)O)NC(=O)[C@H](Cc3ccc(OCC(=O)O)cc3)NC(=O)[C@H](CN)NC(=O)CSC[C@@H](C(N)=O)NC(=O)[C@H](CC(N)=O)NC(=O)[C@H](C(C)C)NC(=O)[C@H](CC3CCCCC3)NC(=O)[C@H](CCN)NC(=O)[C@@H](CC(C)C)NC(=O)[C@H](C)N(C)C(=O)[C@H](Cc3ccc(OCC(=O)O)cc3)NC(=O)[C@H](Cc3ccc(-c4ccccc4)cc3)NC(=O)[C@H](Cc3ccc(OCC(=O)O)cc3)NC2=O)c1` [Compound 1648] ({CH2CO}-[Dap]Y(Carboxymethyl)D[Phe(3-Me)]Y(Carboxymethyl)[Bip]Y(Carboxymethyl)[NMeA][dL][Dab][Cha]VNC-NH2; thioether N-14), the IC50 stood at 0.03 µM. On to `CC(C)C[C@@H]1NC(=O)[C@H](Cc2c[nH]c3ccccc23)NC(=O)[C@H](CC(=O)O)NC(=O)[C@H](Cc2ccc(O)cc2)NC(=O)[C@H](Cc2ccccc2)NC(=O)CSC[C@@H](C(=O)N[C@@H](C)C(N)=O)NC(=O)[C@H]([C@@H](C)O)NC(=O)[C@H](C(C)C)NC(=O)[C@H](CC(C)C)NC(=O)[C@H](CCN)NC(=O)[C@@H](C)NC(=O)[C@H](C)N(C)C(=O)[C@H](C(C)C)NC(=O)[C@H](Cc2ccc(-c3ccccc3)cc2)NC1=O` [Compound 1478] ({CH2CO}-FYDWL[Bip]V[NMeA][dA][Dab]LVTCA-NH2; thioether N-14), for which the IC50 was 0.02 µM. Then `CCC(C)[C@@H]1NC(=O)[C@H](Cc2ccc(-c3ccccc3)cc2)NC(=O)[C@H](C(C)C)NC(=O)[C@H](Cc2c[nH]c3ccccc23)NC(=O)[C@H](CC(=O)O)NC(=O)[C@H](Cc2ccc(O)cc2)NC(=O)[C@H](C2CCN(C(=N)N)CC2)NC(=O)CSC[C@@H](C(=O)N[C@@H](C)C(N)=O)NC(=O)[C@H](C(C)O)NC(=O)[C@H](C(C)C)NC(=O)[C@H](CC2CCCCC2)NC(=O)[C@H](CCN)NC(=O)[C@@H](CC(C)C)NC(=O)[C@H](C)N(C)C1=O` (stereo partly drawn) [Compound 2054] ({CH2CO}-[Gly(1-amidinopiperidin-4-yl)]YDWV[Bip][Ile(3ξ)][NMeA][dL][Dab][Cha]V[Thr(3ξ)]CA-NH2; thioether N-14), with 0.02 µM. As to `CC(C)C[C@@H]1NC(=O)[C@H](Cc2c[nH]c3ccccc23)NC(=O)[C@H](CC(=O)O)NC(=O)[C@H](Cc2ccc(O)cc2)NC(=O)[C@H](Cc2ccccc2)NC(=O)CSC[C@@H](C(=O)NCC(N)=O)NC(=O)[C@H](CO)NC(=O)[C@H](C(C)C)NC(=O)[C@H](CC(C)C)NC(=O)[C@H](CCN)NC(=O)[C@@H](CC(C)C)NC(=O)[C@H](C)N(C)C(=O)[C@H](CCCNC(N)=O)NC(=O)[C@H](Cc2ccc(-c3ccccc3)cc2)NC1=O` [Compound 1512] ({CH2CO}-FYDWL[Bip][Cit][NMeA][dL][Dab]LVSCG-NH2; thioether N-14), the concentration for half-maximal inhibition (IC50) was determined as 0.02 µM.
